Measurements: PMC5799307, “Creation of a long-acting nanoformulated dolutegravir” (Nature Communications, 2018)
Read-outs that look alike come from different tables or passages of the source.

What was measured:
[1] = tested on: human monocyte-derived macrophages (MDM); format: cell-based; conditions: 100 µM
Experimental: Human monocytes were obtained by leukapheresis from HIV-1/2 and hepatitis B seronegative donors, and then purified by counter-current centrifugal elutriation. Human monocytes were plated in a 12-well plate at a density of 1.0 × 10^6 cells per well using DMEM supplemented with 10% heat-inactivated pooled human serum, 1% glutamine, 10 µg/mL ciprofloxacin, and 50 µg/mL gentamicin. Cells were maintained at 37 °C in a 5% CO2 incubator. After 7 days of differentiation in the presence of 1000 U/mL recombinant human macrophage colony stimulating factor (MCSF), MDM were treated with 100 μM DTG, MDTG, NDTG, or NMDTG. Native drugs were added in DMSO (0.1% v/v). Uptake of drug was assessed by measurements of intracellular drug concentrations at 2, 4, 8, 12, 16, or 24 h after treatment. […] For both studies, adherent MDM were washed with PBS, then scraped into PBS, and counted at indicated time points using an Invitrogen Countess Automated Cell Counter (Carlsbad, CA). […] DTG and MDTG drug content was determined by UPLC-UV/Vis as described above. Release was assessed by collecting culture media after 4-h of drug treatment on days 1, 3, 5, 7, 10, 12, and 14. […] Supernatants were dried using a ThermoScientific Savant Speed Vacuum (Waltham, MA), extracted drug resuspended in 150 µL HPLC-grade methanol, and drug content was determined by UPLC-UV/Vis. […]

[2] = tested on: HIV-1ADA; assay: IC50 by HIV-1 RT activity in HIV-1ADA-infected MDM; format: cell-based; conditions: Human immunodeficiency virus 1, 240 h, HIV-1ADA MOI 0.1, RT activity day 10
Experimental: (§1) Antiretroviral efficacy was determined by measurements of HIV reverse transcriptase (RT) activity. For IC50 determination, MDM were exposed to various concentrations (0.01–1000 nM) of DTG or MDTG for 1 h followed by challenge with HIV-1ADA[60] at a multiplicity of infection (MOI) of 0.1 infectious particles per cell for 4 h. Following viral challenge, cells were washed and incubated with the same concentration of drug used before infection for an additional 10 days in culture. Culture fluids were collected on day 10 for the measurement of RT activity as previously described[16],[62],[63]. To assess antiretroviral efficacy, MDM were treated with 100 μM DTG, MDTG, NDTG, or NMDTG as described above for 8 h. After treatment, cells were washed with PBS and cultured with fresh media, with half-media exchanges every other day. At 0, 4, 12 h, and 1, 5, 10, 15, 20, 25, or 30 days after treatment, cells were challenged with HIV-1ADA at an MOI of 0.1 infectious particles per cell for 16 h. After viral infection, the cells were cultured an additional 10 days with half-media exchanges every other day. Culture fluids were collected for measurement of RT activity as previously described[16],[62],[63]. Cells were fixed with 4% PFA and expression of HIV-1p24 antigen was determined by immunocytochemistry.

[3] = tested on: HIV-1ADA; assay: Antiretroviral efficacy in MDM challenged with HIV-1ADA after single 8-h treatment (RT activity, p24); format: cell-based
Experimental: as §1
For immunocytochemistry, cells were washed with PBS and fixed with 4% PFA at room temperature for 15 min, followed by an additional washing with PBS. The cells were treated with a blocking/permeabilizing solution (1% Triton X-100, 10% BSA in PBS) and incubated with mouse monoclonal antibody to HIV-1p24 (1:100) for 16 h at 4 °C. Cells were washed with PBS, and polymer-based HRP-conjugated anti-mouse secondary was added for 30 min at room temperature. Cells were then washed with PBS and developed with DAB. Nuclei were counterstained with Mayer’s hematoxylin, and cells were visualized with a ×20 objective on a Nikon Eclipse E800 microscope (Melville, NY) with Nuance EX multispectral imaging system (PerkinElmer, Hopkinton, MA)[16],[59].

[4] = tested on: MDM; assay: LDH cytotoxicity assay in MDM; format: cell-based, human; conditions: 24 h, 400 µM

Row | Compound | maximum cellular drug level ([1]; 4 h) [µg/10^6 cells] | IC50 [2] [nM] | inhibition at 100 µM ([3]; Human immunodeficiency virus 1, challenge at day 30 after drug loading, read-out: viral inhibition) [%] | beginning of viral breakthrough ([3]; days after single 8-h treatment, 100 µM) [days] | drug retained within MDM ([1]; 24 h) [µg/10^6 cells] | cytotoxicity by LDH [4] | inhibition at 100 µM ([3]; Human immunodeficiency virus 1, single 8-h treatment, read-out: maximal inhibition of HIV-1 RT activity) [%] | time after drug treatment for which efficacy was observed ([3]; single 8-h treatment, 100 µM)
1 | CCCCCCCCCCCCCC(=O)Oc1c2n(cc(C(=O)NCc3ccc(F)cc3F)c1=O)C[C@@H]1OCC[C@@H](C)N1C2=O [MDTG] | 16.7 | 62.5 | 83 | 20 | – | – | – | –
2 | C[C@@H]1CCO[C@H]2Cn3cc(C(=O)NCc4ccc(F)cc4F)c(=O)c(O)c3C(=O)N12 [DTG, dolutegravir] | – | 56.7 | – | – | < 0.1 | changes in cell vitality | 65 | up to 4 h
